Test results as given in ChEMBL document CHEMBL5247617, “4-Arylthiosemicarbazide derivatives - Pharmacokinetics, toxicity and anti-Toxoplasma gondii activity in vivo” (Eur J Med Chem, 2022).
Activity calls are given as the source filed them. The rule behind the calls is not given here.

Legend:
Toxoplasma gondii [1] = experiment: Antiparasitic activity against Toxoplasma gondii RH infected in BALB/c mouse assessed as reduction of daughter tachyzoites in blood at 20 mg/kg, po administered every 24 hrs for 5 days starting from 24 hrs post infection by real-time qPCR analysis; assay type: functional, organism-based; details: time 5.0 day
[2] = Toxicity in BALB/c mouse assessed as increase in serum AST level at 20 mg/kg, po administered for 5 days and measured on day 1 and day 14 by ELISA method; assay type: organism-based; details: in vivo, 120 h, time 5 day
[3] = Toxicity in BALB/c mouse assessed as increase in serum ALT level at 20 mg/kg, po administered for 5 days and measured on day 1 and day 14 by ELISA method; assay type: organism-based; details: in vivo, 120 h, time 5 day
Toxoplasma gondii [4] = experiment: Antiparasitic activity against Toxoplasma gondii DX infected in C3H/HeOuJ mouse assessed as prolongation of survival at 20 mg/kg, po administered every 24 hrs for 5 days starting from 24 hrs post infection by Kaplan-Meier method; assay type: functional, organism-based; details: time 5.0 day
Toxoplasma gondii [5] = experiment: Antiparasitic activity against Toxoplasma gondii RH infected in BALB/c mouse assessed as reduction of bradyzoite gene copies in brain at 20 mg/kg, po administered every 24 hrs for 5 days starting from 24 hrs post infection by real-time qPCR analysis; assay type: functional, organism-based; details: time 5.0 day
Toxoplasma gondii [6] = experiment: Antiparasitic activity against Toxoplasma gondii RH infected in BALB/c mouse assessed as reduction in number of bradyzoite gene copies in muscles at 20 mg/kg, po administered every 24 hrs for 5 days starting from 24 hrs post infection by real-time qPCR analysis; assay type: functional; details: time 5 day
Toxoplasma gondii [7] = experiment: Antiparasitic activity against Toxoplasma gondii RH infected in BALB/c mouse assessed as decrease in IFNgamma level in serum at 20 mg/kg, po administered every 24 hrs for 5 days starting from 24 hrs post infection by ELISA method; assay type: functional, organism-based; details: time 5.0 day
[8] = Toxicity in BALB/c mouse assessed as increase in creatinine level at 20 mg/kg, po administered for 5 days and measured after 14 days by colorimetric assay; assay type: organism-based; details: in vivo, 120 h, time 5 day
[9] = Toxicity in BALB/c mouse assessed as increase in liver weight at 20 mg/kg, po administered for 5 days and measured after 1 day; assay type: organism-based; details: in vivo, 120 h, time 5 day
[10] = Toxicity in BALB/c mouse assessed as changes in size of hepatocyte nuclei at 20 mg/kg, po administered for 5 days and measured after 1 day by hematoxylin-eosin staining based microscopic analysis; assay type: organism-based; details: hepatocytes, 120 h, time 5 day
[11] = Toxicity in BALB/c mouse assessed as increase in creatinine level at 20 mg/kg, po administered for 5 days and measured after 1 day by colorimetric assay; assay type: organism-based; details: in vivo, 120 h, time 5 day
Toxoplasma gondii [12] = experiment: Antiparasitic activity against Toxoplasma gondii RH infected in BALB/c mouse assessed as prolongation of animal survival at 20 mg/kg, po administered every 24 hrs for 5 days starting from 24 hrs post infection by Kaplan-Meier method; assay type: functional, organism-based; details: time 5.0 day
[13] = Toxicity in BALB/c mouse assessed as changes in liver weight at 20 mg/kg, po administered for 5 days and measured after 14 days; assay type: organism-based; details: in vivo, 120 h, time 5 day
[14] = Toxicity in BALB/c mouse assessed as disseminated necrosis of hepatocytes at 20 mg/kg, po administered for 5 days and measured after 1 day by hematoxylin-eosin staining based microscopic analysis; assay type: organism-based; details: in vivo, 120 h, time 5 day
[15] = Toxicity in BALB/c mouse assessed as hydropic degeneration at 20 mg/kg, po administered for 5 days and measured after 1 day by hematoxylin-eosin staining based microscopic analysis; assay type: organism-based; details: in vivo, 120 h, time 5 day

Compound | Activity (Toxoplasma gondii [1]) | Activity [2] | Activity [3] | Activity (Toxoplasma gondii [4]) | Activity (Toxoplasma gondii [5]) | Activity (Toxoplasma gondii [6]) | Activity (Toxoplasma gondii [7]) | Activity [8] | Activity [9] | Activity [10] | Activity [11] | Activity (Toxoplasma gondii [12]) | Activity [13] | Activity [14] | Activity [15]
CCc1nc(N)nc(N)c1-c1ccc(Cl)cc1 [PYRIMETHAMINE] | Active | Toxic | Toxic | Active | Active | 14 | Active | Toxic | Toxic | Toxic | Toxic | Active | Non-Toxic | Toxic | Toxic
COc1cc(Cc2cnc(N)nc2N)cc(OC)c1OC [TRIMETHOPRIM] | – | Non-Toxic | Non-Toxic | Active | Active | 36 | inactive | – | Toxic | – | Toxic | Active | Non-Toxic | – | Toxic
